# Laboratory results: patent US10765690B2, “TLR4 agonists and compositions thereof and their use in the treatment of cancer” (GlaxoSmithKline Intellectual Property Development Limited, priority 2015, dated 2020)
# Values joined by “and” are separate entries in the source; they are usually repeats but may differ in a detail not shown here. Equal values may be shown once.
# Assays:
# [1] = test system: Murine CT-26 colon carcinoma cells; test: CT-26 syngeneic colon carcinoma model, intratumoral or intravenous monotherapy (Example 10, studies 1-3); format: in vivo, Balb/c mice
# Description: The in vivo anti-tumor efficacy of the TLR4 agonist (CRX-601) was assessed in the murine CT-26 colon carcinoma syngeneic solid tumor model as a monotherapy and in combination with […] a therapeutic antibody (combination data not shown). Seven to eight week old female Balb/c mice (BALB/cAnNCrl, Charles River) were used in these studies. Murine CT-26 colon carcinoma cells (ATCC catalog number CRL-2638 lot #59227052) were cultured in RPMI growth medium supplemented with 10% fetal bovine serum (FBS) in a humidified 37° C. incubator with 5% CO2, CT-26 cells cultured in logarithmic growth were harvested from tissue culture flasks and centrifuged for 5 minutes at 450×g at 4° C. for ten minutes to pellet cells. The supernatant was discarded, and cells were washed in ice cold phosphate buffered saline (PBS) without calcium and magnesium and centrifuged again for 5 minutes at 450×g at 4° C. for ten minutes to pellet cells. The cells were resuspended in sterile RPMI media without FBS and adjusted to a cell concentration of 500,000 cells/ml, 100 μl of the cell stock was implanted via subcutaneous injection into the right flank of each Balb/c mouse. After ten or eleven days when the average tumor size reached approximately 100 mm^3, mice were randomized into study cohorts according to tumor size and the first treatment dose was given. The TLR4 agonist (CRX-601) or vehicle was dosed via a systemic intravenous or direct intratumoral injection as indicated. The CRX-601 vehicle used for intravenous and intratumoral dosing was […] where indicated. For CRX-601 liposomal intratumoral dosing, a DOPC/CHOL liposome prepared by GSK Lot #1783-157-B was used. The therapeutic antibody was dosed via an intraperitoneal injection given twice per week for a total of six doses. Caliper measurements were taken three times per week to assess tumor growth, and mice with tumors <2,000 mm^3 were maintained on study from 30 up to approximately 115 days. Mice with tumors >2,000 mm^3 for 2 consecutive measurements or mice with tumors which formed open ulcers were removed from the study. Tumor volume was calculated using the formula (0.52)×(Length)×(Width^2). In study 3, tumor-free mice were re-challenged with CT-26 tumor cells as described above, on the opposite flank from the original inoculation site and tumor growth was monitored, as described above. All studies were conducted in accordance with the GSK Policy on the Care, Welfare and Treatment of Laboratory Animals and were reviewed by the Institutional Animal Care and Use Committee at GSK.
# For studies 1 and 2, to determine significance of tumor growth inhibition, tumor volumes at 11 study 1) or 15 (study 2) days after first dose were compared between the different treatment groups. Prior to the analysis, tumor volumes were natural log transformed due to the inequality of variance in the different treatment groups. ANOVA followed by pair-wise comparison was then carried out on the log transformed data. SAS 9.3 and R 3.0.2 analysis software was used. Kaplan-Meier (KM) method was carried out to estimate the survival probability of different treatment groups at a given time. The event for survival analysis was tumor volume of 2000 mm^3 or tumor ulceration, whichever came first. The exact time to cut-off volume was estimated by fitting a linear line between log tumor volume and day of two observations, the first observation that exceed the cut-off volume and the one observation that immediately preceded the cut-off volume. The median time to endpoint and its corresponding 95% confidence interval was calculated. Whether or not KM survival curves were statistically different between any two groups was then tested by log-rank test. The raw p-value, as well as the false discovery rate (FDR) adjusted p-values, from the comparisons of days to events by survival analysis and the comparisons of log transformed tumor volume at indicated days between treatment groups was determined. […]
# CT-26 cells = test: CT-26 two-flank model, abscopal effect (study 4); format: in vivo, mice
# Description: The in vivo anti-tumor efficacy of the TLR4 agonist (CRX-601) was assessed in the murine CT-26 colon carcinoma syngeneic solid tumor model as a monotherapy and in combination with […] a therapeutic antibody (combination data not shown). Seven to eight week old female Balb/c mice (BALB/cAnNCrl, Charles River) were used in these studies. Murine CT-26 colon carcinoma cells (ATCC catalog number CRL-2638 lot #59227052) were cultured in RPMI growth medium supplemented with 10% fetal bovine serum (FBS) in a humidified 37° C. incubator with 5% CO2, CT-26 cells cultured in logarithmic growth were harvested from tissue culture flasks and centrifuged for 5 minutes at 450×g at 4° C. for ten minutes to pellet cells. The supernatant was discarded, and cells were washed in ice cold phosphate buffered saline (PBS) without calcium and magnesium and centrifuged again for 5 minutes at 450×g at 4° C. for ten minutes to pellet cells. […] Tumor volume was calculated using the formula (0.52)×(Length)×(Width^2). In study 3, tumor-free mice were re-challenged with CT-26 tumor cells as described above, on the opposite flank from the original inoculation site and tumor growth was monitored, as described above. […]
# An abscopal effect is described as distant tumor regression after a local tumor treatment. […] Tumor size was monitored for both the right and left flank tumors. […]
# [2] = test system: CT-26 colorectal tumor cells; test: CT-26 syngeneic colon carcinoma model, escalating i.p. doses (Example 9); format: in vivo, Balb/c mice; details: CRX-601, similar experiment; 4, 20 or 100 ug
smiles,measurement,setting,value
CCCCCCCCCCC[C@H](CC(=O)N[C@H]1[C@H](OC[C@H](NC(=O)C[C@@H](CCCCCCCCCCC)OCCCCCCCCCC)C(=O)O)O[C@H](CO)[C@@H](OP(=O)(O)O)[C@@H]1OC(=O)C[C@@H](CCCCCCCCCCC)OCCCCCCCCCC)OCCCCCCCCCC [CRX-601],tumor status of single mouse remaining on study,"[1]; study 1, 10 ug intratumoral group, day 42",tumor-free
same,tumor growth inhibition compared to vehicle,"[1]; study 1, 10 ug/mouse intratumoral twice per week, 6 doses, 11 days after the initial dose, p-values 0.05",statistically significant
same,tumor-free mice among mice remaining on study,"[1]; study 1, 50 ug intratumoral group, day 42",Three of the four
same,tumor volume of remaining tumor-bearing mouse,"[1]; study 1, 50 ug intratumoral group, fourth mouse, day 42",854.19 mm^3
same,increase in survival compared to vehicle,"[1]; study 1, 50 ug intratumoral single dose, by day 42 post CT26 inoculation, p-values<=0.05",statistically significant
same,tumor growth inhibition compared to vehicle,"[1]; study 1, 50 ug/mouse intratumoral single dose, 11 days after the initial dose, p-values 0.05",statistically significant
same,anti-tumor activity (tumor growth inhibition over time),"[1]; study 1, intratumoral dosing 0.1, 1, 10 ug/mouse twice per week x6 or 50 ug single dose",dose-dependent anti-tumor activity
same,tumor volume of single mouse remaining on study,"[1]; study 2, 10 ug intravenous group, day 32",188.0 mm^3
same,tumor growth inhibition compared to vehicle,"[1]; study 2, 10 ug/mouse intravenous twice per week, 6 doses, 15 days after the initial dose, p-values<=0.05",statistically significant
same,tumor-free mice among mice remaining on study,"[1]; study 2, 100 ug intravenous group, day 32",One of the three
same,tumor volumes of remaining tumor-bearing mice,"[1]; study 2, 100 ug intravenous group, day 32, individual mice",1500.49 mm^3 and 962.61 mm^3
same,increase in survival compared to vehicle,"[1]; study 2, 100 ug intravenous single dose, day 32 post CT-26 inoculation, p-values<=0.05",statistically significant increase
same,tumor growth inhibition compared to vehicle,"[1]; study 2, 100 ug/mouse intravenous single dose, 15 days after the initial dose, p-values<=0.05",statistically significant
same,anti-tumor activity (tumor growth inhibition over time),"[1]; study 2, intravenous dosing 1, 10 ug/mouse twice per week x6 or 100 ug single dose",dose-dependent anti-tumor activity
same,CT26 tumor growth on re-challenge,"[1]; study 3, fully regressed tumor-free mice re-challenged on day 80, opposite flank, vs naive control mice",rejected with no tumor growth
same,mice showing full tumor regressions,"[1]; study 3 Group 2, 25 ug/mouse IV once per week x3",5 out of 10
same,increase in survival compared to control Group 1,"[1]; study 3 Group 2, 25 ug/mouse IV once per week x3, 80 days after the first dose, p-values<=0.05",statistically significant
same,tumor growth inhibition compared to control Group 1,"[1]; study 3 Group 2, 25 ug/mouse intravenous in 0.5% Glycerol/4% dextrose once per week x3 (+Rat IgG1), 12 days after the initial dose, p-values<=0.05",statistically significant
same,increase in survival compared to control Group 5,"[1]; study 3 Group 7, 25 ug/mouse intratumoral DOPC/CHOL liposome once per week x3, 80 days after the first dose, p-values<=0.05",statistically significant
same,tumor growth inhibition compared to control Group 5,"[1]; study 3 Group 7, 25 ug/mouse intratumoral in DOPC/CHOL liposome once per week x3 (+Rat IgG1), 12 days after the initial dose, p-values<=0.05",statistically significant
same,survival benefit compared to the control group,"CT-26 cells; study 4, liposomal CRX-601 IT 25 ug/mouse, vs blank liposome + rat IgG1, p=0.011",significant survival benefit
same,abscopal effect on untreated distant tumor,"CT-26 cells; study 4 group 2, left flank tumor IT injection, liposomal 25 ug/mouse, right flank tumor untreated, mouse #4 and #6",distant right flank tumor regression
same,tumor growth,[2],inhibited tumor growth
